pEC50: −log10 of the molar value.
Legend:
[1] = target: T1, adenosine A2a receptor (Human) (Homo sapiens, UniProt P29274); assay: c-AMP generating action in cell expressing adenosine A2a receptor; format: cell-based; conditions: HEK293 cell expressing human A2a; 100% = c-AMP caused by 1 μM CGS-21680; read-out: A2a Agonistic Action (EC50)
T1 construct: host or cells: HEK293
Method in brief: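 HEK293 cells with human A2a receptor were preincubated 30 min at 37 °C with 0.1 mM IBMX and 2 U/mL adenosine deaminase. Compound was then added for 30 min and cAMP read by EIA. EC50 = concentration giving 50% of the cAMP produced by 1 μM CGS-21680.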

A1 receptor = target: T2, A1 receptor (Rattus norvegicus, UniProt P25099); assay: Adenosine A1 agonistic action ([35S]GTPγS binding, rat cerebral cortex cell membrane); format: biochemical, male Wistar rats; conditions: percentage to 100% of CPA 1 μM
T2 construct: cerebral cortex of male Wistar rats (Charles River Japan, Inc) was extirpated; from tissue; host or cells: cerebral cortex of male Wistar rats, cell membrane preparation
T2 sequence (P25099 1-326): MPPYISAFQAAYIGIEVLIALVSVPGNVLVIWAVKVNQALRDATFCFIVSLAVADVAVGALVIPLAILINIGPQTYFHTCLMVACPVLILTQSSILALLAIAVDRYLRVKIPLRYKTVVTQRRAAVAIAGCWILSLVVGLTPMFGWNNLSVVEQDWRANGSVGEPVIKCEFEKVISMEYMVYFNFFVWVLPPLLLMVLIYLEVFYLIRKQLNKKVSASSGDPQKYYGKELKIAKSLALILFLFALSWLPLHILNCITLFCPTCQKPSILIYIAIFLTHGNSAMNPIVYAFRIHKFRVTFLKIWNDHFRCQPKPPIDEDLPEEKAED
Description: (2) Adenosine A1 Agonistic Action
The test was carried out as mentioned below with reference to the method disclosed in the literature (Shryock J. C. et al., Molecular Pharmacology, (1998) 53, 886-893; Ito H. et al., European Journal of Pharmacology, (1999) 365, 309-315). That is, cerebral cortex of male Wistar rats (Charles River Japan, Inc) was extirpated, thereto Tris buffer (50 mM Tris-HCl: pH 7.4) was added, it was homogenized, and then centrifuged (1000×g, 10 min). The supernatant was taken, and centrifuged (20,000×g, 20 min). After removing off the supernatant, the precipitate was suspended in Tris buffer, and recentrifuged (20,000×g, 20 min). After removing off the supernatant, the precipitate was suspended in Tris buffer including 2 units/mL ADA (adenosine deaminase) and reserved at −80° C. until used as a liquid preparation of cell membrane for the following tests.
The above liquid preparation of cell membrane in an amount corresponding to 10 μg of cell membrane was added to Tris-buffer comprising 5 mM of MgCl2, 1 mM of EDTA, 1 mM of dithiothreitol, 100 mM of NaCl, 0.01 mM of GDP (guanosine diphosphate), 5 mg/mL of BSA and 2 units/mL of ADA and the mixture was incubated at 25° C. for 30 minutes. Additionally, [^35S]GTPγS (Guanosine 5′-[γ-thio]triphosphate) (the final concentration: 0.4 nM) and the test compound of the given concentration (which was calculated based on the final concentration of the test compound) were added to the mixture and the resulting mixture was incubated at 25° C. for 45 minutes. The reaction mixture was filtrated through a glass fiber filter (unifilter-96 GF/B, Perkin Elmer Life Sciences) to quench reaction. The filter was washed 5 times with ice-cooled Tris-buffer including 5 mM MgCl2. The radioactivity of the filter was measured with Top count NXT(Perkin Elmer Life Sciences). The nonspecific binding was shown as the binding activity of [^35S]GTPγS in the presence of 0.01 mM GTPγS.
The activity (%, A1 agonistic action) of each test compound was calculated on the basis of the test result ([^35S]GTPγS binding activity) derived with 1 μM of CPA (N^6-Cyclopentyladenosine, Sigma, code C-8031) in control which was counted as 100%.

[2] = tested on: Intraocular Pressure in Rabbit; assay: Measuring test for intraocular pressure in rabbit; format: in vivo, Female New Zealand white rabbits; conditions: mean±standard error
Method in brief: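 Female New Zealand white rabbits received 50 μL eye drops of compound in 10 mM phosphate buffer pH 7.5 (suspension if insoluble) in one eye, vehicle as control. IOP measured by pneumatonometer under topical oxybuprocaine before and 0.5–6 h after dosing; reported as ΔIOP from pre-instillation, mmHg, mean±SE.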

[3] = 0.03% ophthalmic solution, rabbit, instillation, 0.5 hr after instillation, difference from pre-instillation
[4] = 0.03% ophthalmic solution, rabbit, instillation, 1 hr after instillation, difference from pre-instillation
[5] = 0.03% ophthalmic solution, rabbit, instillation, 2 hr after instillation, difference from pre-instillation
[6] = 0.03% ophthalmic solution, rabbit, instillation, 3 hr after instillation, difference from pre-instillation
[7] = 0.03% ophthalmic solution, rabbit, instillation, 4 hr after instillation, difference from pre-instillation
[8] = 0.03% ophthalmic solution, rabbit, instillation, 6 hr after instillation, difference from pre-instillation

T1 sequence (P29274 whole entry): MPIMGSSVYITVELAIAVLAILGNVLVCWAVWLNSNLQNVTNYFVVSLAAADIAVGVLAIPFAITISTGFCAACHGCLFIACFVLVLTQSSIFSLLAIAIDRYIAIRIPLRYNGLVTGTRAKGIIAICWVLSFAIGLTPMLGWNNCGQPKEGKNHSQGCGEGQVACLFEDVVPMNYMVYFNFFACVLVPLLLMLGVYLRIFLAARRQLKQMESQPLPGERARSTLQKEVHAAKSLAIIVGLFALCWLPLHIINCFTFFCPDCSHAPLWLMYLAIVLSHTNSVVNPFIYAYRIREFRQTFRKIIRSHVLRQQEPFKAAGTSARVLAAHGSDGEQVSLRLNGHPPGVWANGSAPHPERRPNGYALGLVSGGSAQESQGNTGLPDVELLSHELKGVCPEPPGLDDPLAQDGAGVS

| pEC50 [1] | A1 Agonistic Action (%) (A1 receptor; test compound 10 nM) | A1 Agonistic Action (%) (A1 receptor; test compound 100 nM) | A1 Agonistic Action (%) (A1 receptor; test compound 1 μM) | SMILES | ΔIOP (mmHg) [2, 3] [mmHg] | ΔIOP (mmHg) [2, 4] [mmHg] | ΔIOP (mmHg) [2, 5] [mmHg] | ΔIOP (mmHg) [2, 6] [mmHg] | ΔIOP (mmHg) [2, 7] [mmHg] | ΔIOP (mmHg) [2, 8] [mmHg] | also measured |
| --- | --- | --- | --- | --- | --- | --- | --- | --- | --- | --- | --- |
| 8.02 | 2 | 18 | 40 | CC(=O)Nc1ccc(-c2nc(SCc3cccc(CCC(=O)N4CCN(CCN5CCCC5)CC4)n3)nc(N)c2C#N)cc1.Cl [Example 77, N-{4-[6-amino-5-cyano-2-(6-{3-oxo-3-[4-(2-pyrrolidin-1-ylethyl)piperazin-1-yl]propyl}pyridin-2-ylmethylsulfanyl)pyrimidin-4-yl]phenyl}acetamide hydrochloride] | −0.8 ± 0.5 | −5.0 ± 0.6 | −5.1 ± 0.4 | −4.4 ± 0.6 | −4.9 ± 0.7 | −3.1 ± 0.7 | – |
| 8.12 | 0 | 14 | 46 | CC(=O)Nc1ccc(-c2nc(SCc3cccc(CCC(=O)N4CCN(CCN(C(C)C)C(C)C)CC4)n3)nc(N)c2C#N)cc1.Cl [Example 76, N-{4-[6-amino-5-cyano-2-(6-{3-[4-(2-diisopropylaminoethyl)piperazin-1-yl]-3-oxopropyl}pyridin-2-ylmethylsulfanyl)pyrimidin-4-yl]phenyl}acetamide hydrochloride] | – | – | – | – | – | – | ΔIOP (mmHg) ([2]; 0.01% ophthalmic solution, rabbit, instillation, 0.5 hr after instillation, difference from pre-instillation): −3.7 ± 0.5 mmHg; ΔIOP (mmHg) ([2]; 0.01% ophthalmic solution, rabbit, instillation, 1 hr after instillation, difference from pre-instillation): −6.0 ± 0.8 mmHg; ΔIOP (mmHg) ([2]; 0.01% ophthalmic solution, rabbit, instillation, 2 hr after instillation, difference from pre-instillation): −5.7 ± 0.1 mmHg; ΔIOP (mmHg) ([2]; 0.01% ophthalmic solution, rabbit, instillation, 3 hr after instillation, difference from pre-instillation): −6.1 ± 0.3 mmHg; ΔIOP (mmHg) ([2]; 0.01% ophthalmic solution, rabbit, instillation, 4 hr after instillation, difference from pre-instillation): −5.2 ± 0.4 mmHg; ΔIOP (mmHg) ([2]; 0.01% ophthalmic solution, rabbit, instillation, 6 hr after instillation, difference from pre-instillation): −3.6 ± 0.7 mmHg |
| 8.29 | 8 | 30 | 39 | CC(=O)Nc1ccc(-c2nc(SCc3cccc(CCC(=O)N(C)CCN(C)C)n3)nc(N)c2C#N)cc1.Cl [Example 62, 3-{6-[4-(4-acetylaminophenyl)-6-amino-5-cyanopyrimidin-2-ylsulfanylmethyl]pyridin-2-yl}-N-(2-dimethylaminoethyl)-N-methylpropionamide hydrochloride] | −1.2 ± 0.7 | −4.7 ± 0.5 | −5.1 ± 0.3 | −4.9 ± 0.3 | −3.6 ± 0.3 | −1.0 ± 0.6 | – |
| 8.13 | 4 | 26 | 45 | CC(=O)Nc1ccc(-c2nc(SCc3cccc(CCC(=O)N4CCN(C)CC4)n3)nc(N)c2C#N)cc1 [Example 46, N-[4-(6-amino-5-cyano-2-{6-[3-(4-methylpiperazin-1-yl)-3-oxopropyl]pyridin-2-ylmethylsulfanyl}pyrimidin-4-yl)phenyl]-acetamide] | – | – | – | – | – | – | ΔIOP (mmHg) ([2]; 0.01% ophthalmic solution, test group, 0.5 hr): −0.6 ± 0.6 mmHg; ΔIOP (mmHg) ([2]; 0.01% ophthalmic solution, test group, 1 hr): −4.4 ± 0.8 mmHg; ΔIOP (mmHg) ([2]; 0.01% ophthalmic solution, test group, 2 hr): −4.9 ± 0.6 mmHg; ΔIOP (mmHg) ([2]; 0.01% ophthalmic solution, test group, 3 hr): −3.8 ± 0.7 mmHg; ΔIOP (mmHg) ([2]; 0.01% ophthalmic solution, test group, 4 hr): −2.9 ± 0.5 mmHg; ΔIOP (mmHg) ([2]; 0.01% ophthalmic solution, test group, 6 hr): −0.5 ± 0.6 mmHg |

From patent publication US7989446B2, “4-amino 5-cyanopyrimidine derivatives” (Otsuka Pharmaceutical Co., Ltd., priority 2004, dated 2011)
